Experimental data taken from ChEMBL document CHEMBL1146676, “3-Amino-2-hydroxyamides and related compounds as inhibitors of methionine aminopeptidase-2” (Bioorg Med Chem Lett, 2004).

Experiments:
[1] = biological target: Methionine aminopeptidase 1 (Homo sapiens, UniProt P53582); experiment: Inhibitory activity against human methionine aminopeptidase-1
[2] = biological target: Methionine aminopeptidase 2 (Homo sapiens, UniProt P50579); experiment: Inhibitory activity against human methionine aminopeptidase-2
Methionine aminopeptidase 2, sequence (P50579 whole entry): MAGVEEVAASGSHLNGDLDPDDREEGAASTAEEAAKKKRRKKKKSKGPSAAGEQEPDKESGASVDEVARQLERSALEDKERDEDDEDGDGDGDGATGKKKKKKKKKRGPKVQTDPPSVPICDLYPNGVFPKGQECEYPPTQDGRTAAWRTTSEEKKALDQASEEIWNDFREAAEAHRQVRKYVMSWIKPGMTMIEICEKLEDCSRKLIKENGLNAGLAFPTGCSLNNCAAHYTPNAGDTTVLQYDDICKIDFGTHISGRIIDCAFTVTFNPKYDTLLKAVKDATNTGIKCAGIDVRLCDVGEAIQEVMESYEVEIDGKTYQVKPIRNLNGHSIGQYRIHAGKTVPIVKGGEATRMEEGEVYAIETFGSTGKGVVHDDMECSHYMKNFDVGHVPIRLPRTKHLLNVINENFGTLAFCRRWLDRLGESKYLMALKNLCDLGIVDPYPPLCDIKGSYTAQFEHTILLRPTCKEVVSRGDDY

[3] = species on record: Homo sapiens; experiment: Inhibitory activity against proliferation of human microvascular endothelial cell

Structure (SMILES) | IC50 [1] [µM] | also measured
CCOC(=O)[C@@H](C)NC(=O)[C@@H](O)[C@H](N)CC1CCCCC1 | > 100 | –
CCCSC[C@@H](N)[C@H](O)C(=O)NCCc1ccc(Cl)cc1Cl | 24 | –
N[C@H](CCc1ccccc1)[C@H](O)C(=O)NNc1cccc2ccccc12 | 93 | –
N[C@H](CC1CCCCC1)[C@H](O)C(=O)NNC(=O)c1ccc2ccccc2c1 | 63 | –
CC(C)SCC[C@@H](N)[C@H](O)C(=O)N(C)Cc1cccc2ccccc12 | 81 | –
CC(C)SCC[C@@H](N)[C@H](O)C(=O)N[C@@H](CO)c1ccccc1 | 32 | –
N[C@H](C1CCCCC1)[C@H](O)C(=O)NNc1cccc2ccccc12 | 89 | –
C[C@H](NC(=O)[C@@H](O)[C@H](N)CC1CCCCC1)C(=O)O | > 100 | –
CCCSC[C@@H](N)C(O)C(=O)N[C@@H](C)C(=O)OCC (stereo partly specified) | 57 | –
N[C@H](C1CCCCC1)[C@H](O)C(=O)N[C@@H](CO)c1ccccc1 | 79 | –
C[C@H](NC(=O)[C@@H](O)[C@H](N)CSCC1CCCCC1)c1cccc2ccccc12 | 45 | –
CC(C)SCC[C@@H](N)C(O)C(=O)NOc1ccccc1 (single isomer, unassigned) | 4.7 | –
CCOC(=O)[C@H](C)NC(=O)C(O)[C@H](N)CSCC1CCCCC1 (stereo partly specified) | > 100 | –
N[C@H](CC1CCCCC1)[C@H](O)C(=O)NCc1ccc2ccccc2c1 | 12 | –
CC(C)CSC[C@@H](N)[C@H](O)C(=O)N[C@@H](CO)c1ccccc1 | 11 | –
N[C@H](C1CCCCCCC1)C(O)C(=O)NOc1ccccc1 (single isomer, unassigned) | > 100 | –
Cc1ccc(NNC(=O)[C@@H](O)[C@H](N)CCSC(C)C)cc1 | 11 | –
N[C@H](CC1CCCCC1)[C@H](O)C(=O)NNc1cccc2ccccc12 | 58 | –
N[C@H](CC1CCCCC1)[C@H](O)C(=O)N[C@@H](CO)c1ccccc1 | 68 | –
CC(C)SCC[C@@H](N)C(O)C(=O)NCCc1ccc(Cl)cc1Cl (single isomer, unassigned) | 69 | –
COc1cccc(NC(=O)[C@@H](O)[C@H](N)CC2CCCCC2)c1 | 90 | –
CCSCC[C@@H](N)[C@H](O)C(=O)NNC(=O)c1ccc2ccccc2c1 | 15 | –

Structure (SMILES) | IC50 [1] [µM] | also measured
CCOC(=O)[C@H](C)NC(=O)C(O)[C@H](N)CCC1CCCCC1 (stereo partly specified) | 137 | –
CC(C)CSC[C@@H](N)[C@H](O)C(=O)NCCc1ccc(Cl)cc1Cl | 53 | –
CC(C)[C@H](C)NC(=O)[C@@H](O)[C@H](N)CC1CCCCC1 | – | IC50 [2]: > 100 µM
N[C@H](CCc1ccccc1)C(O)C(=O)NOc1ccccc1 (single isomer, unassigned) | 13 | –
CC(C)CSC[C@@H](N)[C@H](O)C(=O)NNc1cccc2ccccc12 | 34 | –
CCOC(=O)[C@H](C)NC(=O)C(O)[C@H](N)CC1CCCCC1 (stereo partly specified) | 84 | –
CCSCC[C@@H](N)[C@H](O)C(=O)NNc1ccc(C)cc1 | 1.3 | –
CC(C)SCC[C@@H](N)[C@H](O)C(=O)NNC(=O)c1cccc(Cl)c1 | 56 | IC50 [3]: 0.1 µM
CC(C)SCC[C@@H](N)[C@H](O)C(=O)NNC(=O)c1ccc2ccccc2c1 | 18 | –
CCCC[C@@H](N)C(O)C(=O)N[C@@H](C)C(=O)OCC (stereo partly specified) | 100 | –
CCSCC[C@@H](N)[C@H](O)C(=O)N(C)Cc1cccc2ccccc12 | 12 | –
N[C@H](C1CCCCC1)C(O)C(=O)NOc1ccccc1 (stereo partly specified) | 95 | –
CC(C)CSC[C@@H](N)[C@H](O)C(=O)NOc1ccccc1 | 1.5 | –
N[C@H](CC1CCCCC1)[C@H](O)C(=O)NOc1ccccc1 | 20 | –
CCCSC[C@@H](N)[C@H](O)C(=O)NNC(=O)c1cccc(Cl)c1 | 11 | –
CC(C)CSC[C@@H](N)[C@H](O)C(=O)N(C)Cc1cccc2ccccc12 | 19 | –
CCCSC[C@@H](N)[C@H](O)C(=O)NNc1ccc(C)cc1 | 5 | –
CC(NC(=O)[C@@H](O)[C@H](N)CC1CCCCC1)c1ccc2ccccc2c1 (stereo partly specified) | 5.3 | –
CCOC(=O)[C@H](C)NC(=O)C(O)[C@H](N)CSC(C)C (stereo partly specified) | 13 | –
N[C@H](CC1CCCCC1)[C@H](O)C(=O)NNC(=O)c1cc(Cl)ccc1Cl | > 100 | –
N[C@H](CC1CCCCC1)[C@H](O)C(=O)NNC(=O)c1cccc(Cl)c1 | > 100 | –
CN(Cc1cccc2ccccc12)C(=O)[C@@H](O)[C@H](N)CCc1ccccc1 | > 100 | –

Structure (SMILES) | IC50 [1] [µM] | also measured
N[C@H](CCc1ccccc1)[C@H](O)C(=O)N[C@@H](CO)c1ccccc1 | 75 | –
N[C@H](C1CCCCC1)[C@H](O)C(=O)NNC(=O)c1cccc(Cl)c1 | 46 | –
CCCSC[C@@H](N)[C@H](O)C(=O)NOc1ccccc1 | 1.7 | –
CCOC(=O)C(C)(C)NC(=O)[C@@H](O)[C@H](N)CC1CCCCC1 | > 100 | –
N[C@H](CC1CCCCC1)[C@H](O)C(=O)NCCc1ccc(Cl)cc1Cl | 63 | –
Cc1ccc(NNC(=O)[C@@H](O)[C@H](N)CC2CCCCC2)cc1 | 14 | –
CCOC(=O)[C@H](C)NC(=O)C(O)[C@H](N)CCc1ccccc1 (stereo partly specified) | 101 | –
C[C@H](NC(=O)C(O)[C@H](N)CCc1ccccc1)c1cccc2ccccc12 (single isomer, unassigned) | 12 | –
CCOC(=O)[C@H](C)NC(=O)C(O)[C@H](N)CSC(C)(C)C (stereo partly specified) | 14 | –
CCOC(=O)[C@H](C)NC(=O)C(O)[C@H](N)CCSCC (stereo partly specified) | 69 | –
N[C@H](CSCC1CCCCC1)[C@H](O)C(=O)NCCc1ccc(Cl)cc1Cl | > 100 | –
CCSCC[C@@H](N)[C@H](O)C(=O)NNC(=O)c1cccc(Cl)c1 | 8.7 | –
CN(Cc1cccc2ccccc12)C(=O)[C@@H](O)[C@H](N)CC1CCCCC1 | 78 | –
CCSCC[C@@H](N)[C@H](O)C(=O)NNc1cccc2ccccc12 | 8.9 | –
CCCSC[C@@H](N)[C@H](O)C(=O)N[C@@H](CO)c1ccccc1 | 12 | –
CCOC(=O)[C@H](C)NC(=O)C(O)[C@H](N)CCSC (stereo partly specified) | 63 | –
Cc1ccc(NNC(=O)[C@@H](O)[C@H](N)CCc2ccccc2)cc1 | 16 | –
Cc1ccc(NNC(=O)[C@@H](O)[C@H](N)CSCC(C)C)cc1 | 6.8 | –
CCOC(=O)[C@H](C)NC(=O)[C@@H](O)[C@H](N)CC1CCCCC1 | 84 | –
CCOC(=O)[C@H](C)NC(=O)C(O)[C@H](N)CSCC(C)C (stereo partly specified) | 66 | –
CCSCC[C@@H](N)[C@H](O)C(=O)NOc1ccccc1 | 1.3 | –
